Data on 2 molecules can be found in patent US20250268801A1, “DRY CREAMS AND TOPICAL DELIVERY SYSTEMS” (UEA Enterprises Limited, priority 2021, published 2025).

A short description of series [1]: Drug solubility in loading solvent. The note with it: sunflower oil, oil or lipid. The format is physicochemical. The protocol: The maximum amount of metoprolol which can dissolve in the volume of ethanol in a 10% solution was precisely weighed out and dissolved in the ethanol—DCM in the HPMCAS-PVP polymer solution before it was electrospun. When coumarin (hydrophobic fluorescent dye) was added, the voltage was increased to 19.1 kv. […] Ketoconazole was dissolved in sunflower oil.

For series [2] the following is noted: cited from earlier work.

In brackets after ≈: the same amount, converted by molar mass.

As for `CC(=O)N1CCN(c2ccc(OCC3COC(Cn4ccnc4)(c4ccc(Cl)cc4Cl)O3)cc2)CC1` (centres unmarked) [Ketoconazole], in series [1], the solubility is ~5800 µg/mL (≈ 10.9 mM). In the case of `COCCc1ccc(OCC(O)CNC(C)C)cc1` (centres unmarked) [Metoprolol], the solubility in ethanol in series [2] is 31000 µg/mL (≈ 116 mM).

One may read the solubility as the dissolved amount per volume that the medium holds. A low value points to a poorly soluble substance.
